Measured values as given in US8680147B2, “Compositions” (DSM IP Assets B.V., priority 2006, dated 2014).

Columns and labels:
Type in all cases: cell-based
β-defensin (defensin-β4) = experiment: Gene expression in cytokine-stimulated keratinocytes, quantitative real time PCR; settings: for β-defensin gene expression (in % of stimulated cells): keratinocytes, cytokine mix 24 hrs
Method: (§1) Keratinocytes were cultured in standard medium (SFM, invitrogen #1 7005075) until they reached confluence. Culture medium was then changed to assay medium (SFM without epidermal growth factor and pituary extract) and pre-incubated with the test compound for 2 hrs. In order to stimulate the cells, a cytokine mix (see Boniface et al. J. Immunol. 178, 4615-4622, 2007) was added and the cells were cultured for 24 hrs. At the end of the experiment, cells were washed; total RNA was extracted using Trizol reagents (Sigma T9424). The expression levels of specific genes (cytokeratin 10, β-defensin (defensin-β4) and psoriasin (or S100 calcium-binding protein A7) was performed by quantitative real time PCR, using the procedure described in other examples.

[1] = tested on: psoriasin (S100 calcium-binding protein A7); experiment: as above; settings: for Psoriasin gene expression (in % of stimulated cells): keratinocytes, cytokine mix 24 hrs
Method: as §1

Human MMP-1 = experiment: Gene expression in human chondrocyte cells (SW1353), quantitative real-time PCR
Method: (§2) The cells were treated with IL-1β, which is one of the natural mediators that induce cartilage breakdown and is detected in substantial amounts in osteoarthritic cartilage tissues and cells derived thereof. Treatment of cells with IL-1β triggers the expression of genes that are involved in catabolic events, such as MMPs. Also, treatment of the cells with IL-1β reduces the collagen expression levels (compared to untreated cells)
(§3) Chondrocytes (SW1353; purchased from the […] [ATCC]) were grown in cell culture medium according to the instructions from ATCC. For experimental treatments, cells were seeded into 6-well plates and cultured for two days until they reached confluence. Total cellular RNA was extracted from cultured cells and reverse-transcribed as described by Richard et al. Mol. Nutr. Food Res. 49, 431-442, 2005. Expression levels of distinct genes were determined by quantitative real-time PCR as described in Richard et al. Mol. Nutr. Food Res. 49, 431-442, 2005.

human collagen 1 = experiment: as above
Method: as §2, §3

Human MMP-13 = experiment: as above
Method: as §2, §3

Human MMP-3 = experiment: as above
Method: as §2, §3

Aggrecan = experiment: as above
Method: as §2, §3

Human collagen II = experiment: as above
Method: as §2, §3

[2] = cytokine-stimulated keratinocytes

COc1c(C(C)C)cc2c(c1O)[C@@]1(C(=O)O)CCCC(C)(C)[C@@H]1CC2 [Carnosic acid-12-methyl ether (I), (4aR,10aS)-carnosic acid 12-methyl ether]
β-defensin gene expression (in % of stimulated cells) (β-defensin (defensin-β4); 0.1 μmol/L): 49 % of stimulated cells
β-defensin gene expression (in % of stimulated cells) (β-defensin (defensin-β4); 1.0 μmol/L): 47 % of stimulated cells
β-defensin gene expression (in % of stimulated cells) (β-defensin (defensin-β4); 5.0 μmol/L): 28 % of stimulated cells
Effect on β-defensin expression (in words) (β-defensin (defensin-β4); [2]): dose-dependently reduced the expression
Psoriasin gene expression (in % of stimulated cells) ([1]; 0.1 μmol/L): 46 % of stimulated cells
Psoriasin gene expression (in % of stimulated cells) ([1]; 1.0 μmol/L): 58 % of stimulated cells
Psoriasin gene expression (in % of stimulated cells) ([1]; 5.0 μmol/L): 62 % of stimulated cells
Effect on psoriasin expression (in words) [1, 2]: dose-dependently reduced the expression
Effect on expression of MMP-1 (in words) (Human MMP-1): drastically reduced the expression
Effect on expression of human collagen 1 (in words) (human collagen 1): stimulated the expression
Effect on expression of MMP-13 (in words) (Human MMP-13): drastically reduced the expression
Effect on expression of MMP-3 (in words) (Human MMP-3): drastically reduced the expression
Effect on expression of aggrecan (in words) (Aggrecan): stimulated the expression
Effect on expression of human collagen 11 (in words) (Human collagen II): stimulated the expression
